How the values were obtained:
RAW264.7 = assay: Inhibition of LPS induced NO production in mouse RAW264.7 cells measured after 24 hrs by Griess reagent based assay; type: functional, cell-based; settings: RAW264.7, 24 h
[1] = Cytotoxicity against mouse RAW264.7 cells assessed as reduction in cell viability measured after 24 hrs by MTT assay; type: cell-based

IC50 (RAW264.7) [µM]	Compound	CC50 at 24 h [1] [µM]
0.2	C=C1C(=O)O[C@H]2[C@H]1[C@@H](OC(=O)/C(C)=C\C)CC(C)=C1C[C@@H]3O[C@]3(C)[C@@H]12	21.7
29.9	CC(=O)/C=C/[C@]1(O)C(C)(C)C[C@H](O)C[C@@]1(C)O	> 100
3	C=C1C(=O)O[C@H]2[C@H]1[C@@H](OC(=O)C(C)CC)CC(C)=C1C[C@@H]3O[C@]3(C)[C@@H]12 (stereo partly drawn)	21.5
1.8	C=C1C(=O)O[C@@H]2[C@H]3C(C)=CC(=O)[C@H]3[C@@H](C)C[C@H](OC(=O)/C(C)=C\C)[C@@H]12	22.5
9.9	C=C1C(=O)O[C@@H]2/C=C(\C)CC/C=C(\C)C[C@H](OC(=O)/C(C)=C\C)[C@@H]12	27
> 100	CC1=CC[C@H]([C@](C)(O)C/C=C/C(C)(C)O)CC1=O	> 100
97.8	C=C[C@](C)(CCC/C(C)=C\C(=O)C=C(C)C)O[C@@H]1O[C@H](CO)[C@@H](O)[C@H](O)[C@H]1O	> 100
> 100	C=C(C)C(O)CC[C@@](C)(O)[C@H]1CC=C(C)C(=O)C1 (stereo partly drawn)	> 100
27	C=C1C(=O)O[C@@H]2[C@H]3C(C)=CC(=O)[C@@H]3[C@@H](C)C[C@H](OC(=O)/C(C)=C\C)[C@@H]12	> 100

More lines, now with the values behind:

Compound	IC50 (RAW264.7) [µM]	CC50 at 24 h [1] [µM]
C[C@@H]1O[C@@H](OC[C@H]2O[C@@H](Oc3cc(O)c4c(=O)cc(-c5ccc(O)c(O)c5)oc4c3)[C@H](O)[C@@H](O)[C@@H]2O)[C@H](O)[C@H](O)[C@H]1O	> 100	> 100
O=C(O)[C@H]1O[C@@H](Oc2cc(O)c3c(=O)cc(-c4ccc(O)cc4)oc3c2)[C@H](O)[C@@H](O)[C@@H]1O	> 100	> 100
O=C(O)[C@H]1O[C@@H](Oc2cc(O)c3c(=O)cc(-c4ccc(O)c(O)c4)oc3c2)[C@H](O)[C@@H](O)[C@@H]1O	> 100	> 100
CC1=CC[C@H](C(C)(C)O)CC1=O	48.8	98
C=C[C@@](C)(O)C[C@H](O)/C=C(\C)CC(=O)C=C(C)C	48.4	> 100
COc1ccc(-c2cc(=O)c3c(O)cc(O[C@@H]4O[C@H](C(=O)O)[C@@H](O)[C@H](O)[C@H]4O)cc3o2)cc1	92.4	> 100
C=C[C@](C)(CCC/C(C)=C/C(=O)C=C(C)C)O[C@@H]1O[C@H](CO)[C@@H](O)[C@H](O)[C@H]1O	> 100	> 100
C=C[C@](C)(CC/C=C(\C)CC(=O)C=C(C)C)O[C@@H]1O[C@H](CO)[C@@H](O)[C@H](O)[C@H]1O	> 100	> 100
C=C[C@](C)(CC/C=C(\C)CC(=O)CC(C)C)O[C@@H]1O[C@H](CO)[C@@H](O)[C@H](O)[C@H]1O	> 100	> 100
COc1ccc(-c2cc(=O)c3c(O)cc(O)cc3o2)cc1 [ACACETIN]	5.9	60.9
COc1ccc(-c2cc(=O)c3c(O)cc(O[C@@H]4O[C@H](CO[C@@H]5O[C@@H](C)[C@H](O)[C@@H](O)[C@H]5O)[C@@H](O)[C@H](O)[C@H]4O)cc3o2)cc1 [ACACIIN]	> 100	> 100
O=c1cc(-c2ccc(O)cc2)oc2cc(O)cc(O)c12 [APIGENIN]	18.4	65.1
O=c1cc(-c2ccc(O)cc2)oc2cc(O[C@@H]3O[C@H](CO)[C@@H](O)[C@H](O)[C@H]3O)cc(O)c12 [APIGETRIN]	53.7	> 100
COc1ccc(-c2cc(=O)c3c(O)cc(O)cc3o2)cc1O [DIOSMETIN]	34.5	–
O=c1cc(-c2ccc(O)c(O)c2)oc2cc(O[C@@H]3O[C@H](CO)[C@@H](O)[C@H](O)[C@H]3O)cc(O)c12 [GALUTEOLIN]	87.5	> 100
COc1ccc([C@@H]2CC(=O)c3c(O)cc(O)cc3O2)cc1O [HESPERETIN]	31.2	> 100
CC1(C)C[C@H](O)C[C@@]2(C)OC(=O)C=C12 [LOLIOLIDE]	56.7	> 100
COc1ccc(-c2cc(=O)c3c(O)cc(O[C@@H]4O[C@H](CO)[C@@H](O)[C@H](O)[C@H]4O)cc3o2)cc1 [TILIANINE]	45.4	> 100
